Assay results as given in paper PMC8196714, “Design, Radiosynthesis and Preliminary Biological Evaluation in Mice of a Brain-Penetrant ^18F-Labelled σ2 Receptor Ligand” (International Journal of Molecular Sciences, 2021).

Key:
[1] = Lipophilicity (logD7.4), shake-flask method; format: physicochemical; conditions: n-octanol/PBS pH 7.4, shake-flask, n = 3
Experimental: The in vitro stability of [^18F]RM273 was investigated in saline, phosphate-buffered saline (PBS), and TRIS-HCl buffer (50 mM, pH 7.4) at 37 °C for 2 h, and the radioligand remained intact (90%, 94%, and 100%, respectively; saline for 1 h: 95%). The logD7.4 of [^18F]RM273 was experimentally determined by the shake-flask method as 1.78 ± 0.22 (n = 3), which is well within the range of 1–3.5 recommended for brain targeting compounds [43].
LogD7.4 of [^18F]RM273 was experimentally determined in n-octanol/PBS; 0.01 M, pH 7.4) at room temperature by the shake-flask method. The measurement was performed twice in triplicate.

σ2 receptor = biological target: T1, σ2 receptor (Rattus norvegicus, UniProt Q5U3Y7); experiment: In vitro autoradiography on rat brain cryosections (healthy and orthotopic F98 glioblastoma); format: binding; parameters: from tissue; host or cells: rat brain cryosections (SPRD healthy; Fisher F344 with orthotopic F98 glioblastoma); conditions: for specific binding sites: at 1.5 nM [18F]RM273; for Kd: rat brain cryosections, n = 2
T1 sequence (Q5U3Y7 1-176): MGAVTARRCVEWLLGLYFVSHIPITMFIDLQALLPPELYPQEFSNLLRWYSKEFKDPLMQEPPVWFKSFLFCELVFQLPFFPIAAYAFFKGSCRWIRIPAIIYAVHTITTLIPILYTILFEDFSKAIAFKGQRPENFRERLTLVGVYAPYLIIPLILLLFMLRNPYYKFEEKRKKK
Source text: Initially, we investigated the binding of [^18F]RM273 on rat brain slices by autoradiography to compare the distribution pattern with that of established σ2 receptor ligands and to examine the target specificity. The highest binding was found in the cortical areas and hippocampal structures. […] Accordingly, we proceeded to investigate, in a rat glioblastoma model, the potential suitability of [^18F]RM273 for molecular characterization of cancer. At first, homologous competition studies using membrane homogenates of the rat glioma cell line F98 were performed to determine the σ2 receptor binding parameters of [^18F]RM273 cells (Figure 3).
We subsequently investigated the binding parameters of [^18F]RM273 by in vitro autoradiography using cryosections of rat brains obtained three weeks after stereotactic implantation of F98 rat glioblastoma cells into the left striatum. Initially, we performed a homologous displacement study to directly compare the binding sites of the new radioligand in a healthy brain and a brain tumor. The inhibition curves presented in Figure 3 indicate binding of [^18F]RM273 to single binding sites in both brain regions. […] Further supporting the assumption of a tumor-specific overexpression of σ2 receptors, a remarkably high density of binding sites of [^18F]RM273 in the F98 tumor tissue was observed (Figure 4). Compared to the healthy tissue (contralateral side), about three times more specific binding sites of [^18F]RM273 were estimated for the tumor region (32 × 10^−9 mol/L vs. 94 × 10^−9 mol/L at 1.5 nM [^18F]RM273).
In vitro autoradiography was performed using cryosections of brains of a healthy rat (SPRD, female, 250 g; Medizinisch-Experimentelles Zentrum, Universität Leipzig, Leipzig, Germany) and brains obtained from rats (Fisher F344/HanZtmRj, male, ≈260 g; Janvier Labs, Le Genest-Saint-Isle, France) 23 days after stereotactic implantation of 5 × 10^4 F98 cells in the […] striatum (n = 2).
Immediately after isolation, the brains were frozen by immersion in isopentane at −25 °C. Cryosections of 12 μm (Microm HM560 cryostat, Thermo Scientific, Schwerte, Germany) were mounted on microscopic glass slides, dried at room temperature, and stored at −25 °C. For the experiment, the slices were dried at room temperature under a stream of cold air before pre-incubation in PBS, pH 7.4, at room temperature for 15 min. […] Co-incubation with serial dilutions of RM273 (10^−10–10^−6 M) was performed to determine an inhibition curve. After 60 min, the incubation at room temperature was terminated by decanting and washing the slides by two consecutive incubations in ice-cold washing buffer (50 mM TRIS-HCl, pH 7.4 at 4 °C) for two min each, followed by dipping in ice-cold demineralized water for 5 sec and drying under a stream of cold air. In parallel, for subsequent quantification of the data obtained from the homologous competition experiment, defined volumes, and thus defined activities of the radioligand solution, were pipetted onto a microscopic glass slide (0.5–3 μL = 0.0355–0.213 kBq) and dried. Afterwards the tissue samples along with the standards were exposed to an ^18F-sensitive phosphor screen (ABC) for two hours. Image acquisition was performed using a phosphorimager (HD-CR 35; DÜRR NDT GmbH & Co. KG, Bietigheim-Bissingen, Germany). Analysis of the digitized images was performed by image analysis software (AIDA; Elysia-raytest GmbH, Straubenhardt, Germany).
Irregular regions of interest (ROI) were drawn on the standard spots and the different brain regions, which were confirmed by Nissl staining of the identical brain sections. Optical density measured in each ROI was expressed as quantum levels per unit area (QL/pixel) with a pixel size of 12.5 μm^2. From the calibration curve obtained from the standards by plotting QL vs. activity, the QL values of the ROIs were converted to activity values followed by conversion to chemical concentration of RM273 based on the molar activity of [^18F]RM273. […]

## COc1cc2c(cc1OC)CN(CCCCn1ccc3ccc([18F])nc31)CC2 [[^18F]RM273]
[1]
  logD: 1.78 ± 0.22
σ2 receptor; F98 tumor region
  specific binding sites: 9.4e-08 mol/L
σ2 receptor; contralateral striatum / contralateral brain
  Kd: 2.93 nM
σ2 receptor; healthy tissue (contralateral side)
  specific binding sites: 3.2e-08 mol/L
σ2 receptor; orthotopically grown F98 tumor region
  Kd: 4.82 nM
